The values below are quoted from earlier work in patent publication US20130071435A1, “NOVEL HERBAL FORMULATION FOR THE MODULATION OF IMMUNE SYSTEM OF HIV INFECTED PATIENTS AND A PROCESS OF PREPARATION THEREOF” (Sunil Kumar Swamy Rajan and Arun Kumar Swamy Rajan, priority 2011, published 2013).

For this series the following is noted: experimental, in-vitro and in-vivo studies.

Take sitoindoside 1×: the immuno-potentiating activity entry is “significant immuno-potentiating activity”.

Consider sitoindoside ×, for which the immuno-potentiating activity result was “significant immuno-potentiating activity”.
